Laboratory results taken from publication PMC5750238 (2018).

System: S6-M19-SAM sensor (RNA, riboswitch) GGGAGAUAGAGCAUCCGAUAACUUCGGUUAUUGGAUGGAUCAGACUCCUUCGGGAGUUUGAUCGGGCCUGAAGCCUCCACGGGCCCCUCUGUCUCCCACAGCUUGGACGAGCUGAAGGAGGCACGGCUCCCCAUCAAGGACGGGUCCAAUGGUCCGCUUCGGCGGAUCAUUGUUGAGUAGAGUGUGAGGAUGGGCCGGGGGAACUUCGGUUCCCGAAAGGACCGGUCGAAGGGACGGUGCGGAGAGGAGAGACUGGGAUGCCUUGUAACCGGGUCUAAGUUGU
Test: FRET dose-response (Spinach/DFHBI-1T to Mango/YO3-biotin)
Details: 125 mM KCl, 1 mM MgCl2; assembly buffer; 50 nM RNA, 1 µM DFHBI-1T, 1.7 µM YO3-biotin; SAM 1 µM to 2.5 mM; apparent

## C[S+](CC[C@H](N)C(=O)O)C[C@H]1O[C@@H](n2cnc3c(N)ncnc32)[C@H](O)[C@@H]1O (stereo partly shown)
  EC50: 17 µM
